From patent US9260481B2, “Peptide derivatives as antibiotics” (priority 2011, dated 2016)
Converted amounts (≈) assume the structure as drawn. Where two headings read alike, the source gives them in different places. Numbered stars: 1 amine (or outer) side, 2 acyl side, 3 side chain; on linkers, the order of the positions; unused ones are H or OH. Square brackets hold non-standard residues; d marks the D form. Peptide text beside a SMILES is read from it. * marks the point of attachment. ξ: configuration not given here. X1 = NCC(O)CCC(N[*:1])C(=O)[*:2]; ΔZArg = N=C(N)NCC/C=C(\N)C(=O)O; ξDab(3-OH) = NCC(O)C(N)C(=O)O; Orn = NCCC[CH](N)C(=O)O; NH(CH2)4NH2 = NCCCCN*

Columns and labels:
[1] = system: P. aeruginosa ATCC 27853; type: cell-based, Pseudomonas aeruginosa; conditions: ATCC 27853, 24 h
Method: (§1) Minimal bactericidal concentrations (MBCs) were established by extending the MIC procedure to the evaluation of bactericidal activity. After 24 hours, 10 μL were drawn from the wells, serially diluted and then spotted onto suitable agar plates. The plates were incubated at 37° C. overnight. […] All the experiments were done in triplicate.

[2] = system: S. aureus ATCC 13709; type: cell-based, Staphylococcus aureus; conditions: ATCC 13709, 24 h
Method: as §1

[3] = Cytotoxicity test (MTS); type: cell-based; conditions: human; for CC50 at 72 h: MTS; for viability at 72 h: dose of up to 100 μg/mL, read-out: cell viability
Method: The cytotoxicity of the Odilomycins A-C was investigated against Human colon adenocarcinoma (HT29) cells and Human normal lung fibroblasts (MRC-5) cells. 200 μL of the cell suspension of HT29 (human colorectal adenocarcinoma) prepared in RPMI 1640+1% L-Glutamine supplemented with 10% (v/v) fetal calf serum and 200 μL of the cell suspension of MRC5 (human lung fibroblast) prepared in Dulbecco's modified Eagle's medium supplemented with 25 mM glucose and 10% (v/v) fetal calf serum were inoculated into 96-well plates.
The inoculating cell number was 800 cells per well for HT29 and 2100 cells per well for MRC-5. The microplates were incubated at 37° C. for 24 h with 5% of CO2.
Twenty four hours later, Odilomycin A, B or C dissolved in water were added for 72 h at a final concentration from 0.78 μg/mL to 100 μg/mL in a fixed volume of water (1% final concentration). […] Experiments were done in triplicate.

[4] = system: Pseudomonas aeruginosa
Method: (§2) The minimal inhibitory concentrations (MIC) were determined according to the Clinical and Laboratory Standards Institute (CLSI) conditions guidelines detailed in Table 7. Assays were performed in triplicate.
(§3) Preparation of Inocula. Five to 10 well-isolated colonies were picked and resuspended in 3 ml sterile saline. The inoculum was re-suspended by vigorous shaking on a vortex mixer for 15 s. Turbidity was adjusted to McFarland standard 0.5 ([…]). The inoculum was further diluted in the appropriate media (Table 7) to give a final inoculum in each well of ˜2-8×10^5 CFU/ml.
(§4) Addition of Test Article. Stock solutions of Odilomycin A or comparator were diluted in the appropriate media to give a maximum starting concentration of 50 μg/mL in the assay. 50 μL of medium was dispensed into each well in columns two to 12 of a 96 well plate. 100 μL of the appropriate test compound solution (100 μg/mL) was dispensed into each well in column one. In the case of M. catarrhalis, M. haemolytica and P. multocida these values were doubled (a final assay volume of 200 μL was used). […] Columns 11 and 12 served as positive (no drug or test article, inoculum added), and negative (no drug, test article, or inoculum added) growth controls respectively.
(§5) Addition of Bacterial Strains. 50 μL of each inoculum suspension was added to the appropriate wells, resulting in a final volume of 100 μL consisting of 50 μL diluted compound or diluents, and 50 μL of inoculum or broth alone.

[5] = system: Bacteroides fragilis; assay: microbe, parasite or virus in culture; conditions: Bacteroides fragilis, ATCC25238
Method: as §2, §3, §4, §5

[6] = HT29 colon adenocarcinoma cells
[7] = MRC-5 normal lung fibroblasts, MRC-5 cells

With `N=C(N)NCC/C=C(\NC(=O)C(CCCCN)NC(=O)C(Cc1cnc[nH]1)NC(=O)C1CCCN1C(=O)C(CCCN)NC(=O)CNC(=O)C(NC(=O)C(NC(=O)C(N)CCCCN)C(O)CN)C(O)CN)C(=O)NC(CCC(O)CN)C(=O)NCCCCN` (stereo not drawn) [Odilomycin B, Lys-(3-hydroxy-2,4-diaminobutanoic acid)-(3-hydroxy-2,4-diaminobutanoic acid)-Gly-Ornithine-Pro-His-Lys-(2,3-dehydroarginine)-(5-hydroxylysine)-(1,4-diaminobutane)] (H-K[ξDab(3-OH)][ξDab(3-OH)]G[Orn]PHK[ΔZArg][X1]-{NH(CH2)4NH2}; configuration not given here) the MBC [1] was 3.12 µg/mL (≈ 2.44 µM), the MBC [2] was 0.78 µg/mL (≈ 0.609 µM) and the CC50 at 72 h [3, 6] was greater than 100 µg/mL. It also gave a viability at 72 h [3, 6] of 100%, a CC50 at 72 h [3, 7] greater than 100 µg/mL and a viability at 72 h [3, 7] of 100%.
`N=C(N)NCC/C=C(\NC(=O)C(CCCCN)NC(=O)C(Cc1cnc[nH]1)NC(=O)C1CCCN1C(=O)C(CCCN)NC(=O)CNC(=O)C(NC(=O)C(NC(=O)C(N)CCCCN)C(O)CN)C(O)CN)C(=O)NC(CCCCN)C(=O)NCCCCN` (stereo not drawn) [Odilomycin C, Lys-(3-hydroxy-2,4-diaminobutanoic acid)-(3-hydroxy-2,4-diaminobutanoic acid)-Gly-Ornithine-Pro-His-Lys-(2,3-dehydroarginine)-Lys-(1,4-diaminobutane)] (H-K[ξDab(3-OH)][ξDab(3-OH)]G[Orn]PHK[ΔZArg]K-{NH(CH2)4NH2}; configuration not given here) gave an MIC [4] of 6.25 µg/mL (≈ 4.94 µM), an MBC [1] of 12.5 µg/mL (≈ 9.88 µM) and an MBC [2] of 1.56 µg/mL (≈ 1.23 µM). The CC50 at 72 h [3, 6] was greater than 100 µg/mL, the viability at 72 h [3, 6] was 100% and the CC50 at 72 h [3, 7] was greater than 100 µg/mL. For the same compound, the viability at 72 h [3, 7] was 100%.
`Cc1ncc([N+](=O)[O-])n1CCO` [metronidazole, reference compound] showed an MIC [5] of 0.39 µg/mL (≈ 2.28 µM).
